In general, EC50 refers to the concentration needed to bring the measured effect to its halfway point. A low value points to an effect from little substance.

Here are results for two compounds from paper PMC5849714, “Direct coupling of detergent purified human mGlu5 receptor to the heterotrimeric G proteins Gq and Gs” (Scientific Reports, 2018).

Test [1] has as its target T1, human mGlu5 receptor (Homo sapiens, UniProt P41594). Kind of test: IP-One accumulation in transfected HEK293 cells. The test is classed as cell-based. On the set-up: gene GRM5; full-length wild-type (SNAP-tagged).
Target sequence in this assay (P41594 21-1212): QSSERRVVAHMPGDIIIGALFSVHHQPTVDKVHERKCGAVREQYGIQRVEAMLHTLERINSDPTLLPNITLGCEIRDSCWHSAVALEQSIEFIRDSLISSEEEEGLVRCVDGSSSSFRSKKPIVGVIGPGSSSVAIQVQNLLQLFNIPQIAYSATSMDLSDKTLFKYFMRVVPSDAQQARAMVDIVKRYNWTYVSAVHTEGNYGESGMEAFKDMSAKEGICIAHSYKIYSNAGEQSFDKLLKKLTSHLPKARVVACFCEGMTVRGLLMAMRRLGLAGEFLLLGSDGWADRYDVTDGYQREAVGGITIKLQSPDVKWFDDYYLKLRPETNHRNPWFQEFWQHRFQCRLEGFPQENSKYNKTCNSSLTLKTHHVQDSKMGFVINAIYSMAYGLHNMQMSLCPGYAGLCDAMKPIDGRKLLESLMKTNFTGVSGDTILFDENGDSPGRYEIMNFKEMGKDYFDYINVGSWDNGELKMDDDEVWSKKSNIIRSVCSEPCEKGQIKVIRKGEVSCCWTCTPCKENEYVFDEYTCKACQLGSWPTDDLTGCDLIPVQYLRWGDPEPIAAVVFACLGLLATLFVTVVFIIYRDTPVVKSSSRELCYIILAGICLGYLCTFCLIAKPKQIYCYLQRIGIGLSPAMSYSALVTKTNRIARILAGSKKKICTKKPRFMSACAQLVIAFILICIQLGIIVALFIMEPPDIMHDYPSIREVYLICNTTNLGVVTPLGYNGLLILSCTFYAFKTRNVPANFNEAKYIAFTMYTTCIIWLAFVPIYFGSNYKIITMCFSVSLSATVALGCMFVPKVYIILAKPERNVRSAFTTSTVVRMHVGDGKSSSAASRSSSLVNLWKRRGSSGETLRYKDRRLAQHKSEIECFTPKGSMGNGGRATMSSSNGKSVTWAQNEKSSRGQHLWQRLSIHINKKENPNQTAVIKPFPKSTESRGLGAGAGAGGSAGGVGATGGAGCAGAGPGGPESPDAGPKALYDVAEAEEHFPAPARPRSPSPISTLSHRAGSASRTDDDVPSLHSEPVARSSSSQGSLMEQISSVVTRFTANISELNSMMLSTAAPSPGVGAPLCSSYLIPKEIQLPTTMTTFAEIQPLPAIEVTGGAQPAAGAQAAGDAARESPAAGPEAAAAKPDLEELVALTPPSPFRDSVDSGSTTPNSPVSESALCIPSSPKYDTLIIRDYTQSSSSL
Test [2] deals with T1, human mGlu5 receptor. Kind of test: Bodipy-FL GTPγS activation of purified Gq/Gs by purified receptor ([…] ligand); pEC50 from IP-One assay in HEK293 cells. On the set-up: gene GRM5; mGlu5-Δ856 (C-terminus truncated after Ala856). The test is classed as biochemical.
Target sequence in this assay (P41594 21-856): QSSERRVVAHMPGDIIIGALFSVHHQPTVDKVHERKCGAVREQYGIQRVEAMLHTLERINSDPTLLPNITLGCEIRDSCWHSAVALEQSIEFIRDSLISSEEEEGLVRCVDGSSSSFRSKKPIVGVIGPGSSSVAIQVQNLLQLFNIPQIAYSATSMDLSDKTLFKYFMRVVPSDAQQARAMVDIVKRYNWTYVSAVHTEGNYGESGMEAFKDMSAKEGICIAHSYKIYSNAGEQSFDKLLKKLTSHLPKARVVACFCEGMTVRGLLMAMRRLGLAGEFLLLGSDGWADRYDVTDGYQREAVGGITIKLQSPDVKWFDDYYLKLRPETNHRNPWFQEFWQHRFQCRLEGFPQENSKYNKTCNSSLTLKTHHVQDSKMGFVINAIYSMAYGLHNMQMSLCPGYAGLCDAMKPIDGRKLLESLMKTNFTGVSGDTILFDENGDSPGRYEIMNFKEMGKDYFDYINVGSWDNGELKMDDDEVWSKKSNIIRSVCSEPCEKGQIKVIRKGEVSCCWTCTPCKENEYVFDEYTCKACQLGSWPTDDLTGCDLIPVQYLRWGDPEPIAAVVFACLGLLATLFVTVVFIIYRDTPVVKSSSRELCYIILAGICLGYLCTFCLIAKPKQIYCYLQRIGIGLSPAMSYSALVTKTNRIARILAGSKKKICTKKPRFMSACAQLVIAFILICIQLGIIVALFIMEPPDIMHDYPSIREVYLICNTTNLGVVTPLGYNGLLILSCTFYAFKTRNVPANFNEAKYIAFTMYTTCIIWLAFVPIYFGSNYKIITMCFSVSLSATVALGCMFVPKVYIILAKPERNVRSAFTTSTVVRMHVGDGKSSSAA

The structures appear in SMILES notation.

Consider `N[C@@H](Cn1oc(=O)[nH]c1=O)C(=O)O` [quisqualate], for which the EC50 at human mGlu5 receptor [1] was 0.0309 µM. On to `C[C@@H](NC(=O)c1ccc(C#Cc2cccc(F)c2)cn1)C(C)(C)O` [VU0424465, (R)-5-((3-fluorophenyl)ethynyl)-N-(3-hydroxy-3-methylbutan-2-yl) picolinamide], for which the EC50 on human mGlu5 receptor [2] was 0.00295 µM. In other words, the single-digit nanomolar range.
